# System: yeast genes (expressed mRNA)
# Test: DNA chip measurement of expressed mRNA of yeast genes after culture with a toxic chemical substance
# Format: cell-based, Saccharomyces cerevisiae S288C
# Outline: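 Fluorescence ratio, treated over untreated, read by chip scanner; ratio of two or more counted significant. Cells: S288C yeast, YPD, 25° C, chemical added at log phase for 2 h at growth-inhibiting, sublethal level. Cy3/Cy5-labeled cDNA from oligo-dT-purified mRNA.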
smiles,measurement,setting,value
"CCCCC[C@H](O)CC(=O)CCc1ccc(O)c(OC)c1 [(13), Gingerol]",The level of expressed mRNA in the presence of chemical substance/The level of expressed mRNA in the absence of chemical substance,"yeast gene YKL065C, cultured two hours with substance",3.0
same,level of expressed mRNA in the presence of chemical substance / level in the absence of chemical substance,"yeast gene YKL097C, cultured two hours with the chemical substance",0.9
same,level of expressed mRNA in the presence of chemical substance / level in the absence of chemical substance,"yeast gene YKL100C, cultured two hours with the chemical substance",1.3
same,The level of expressed mRNA in the presence of chemical substance/The level of expressed mRNA in the absence of chemical substance,"yeast gene YKL153W, cultured two hours with substance",2.4
same,The level of expressed mRNA in the presence of chemical substance/The level of expressed mRNA in the absence of chemical substance,"yeast gene YKL194C, mitochondria-located protein gene, cultured two hours with substance",1.1
same,The level of expressed mRNA in the presence of chemical substance/The level of expressed mRNA in the absence of chemical substance,yeast gene YKL218C,5.1
same,The level of expressed mRNA in the presence of chemical substance/The level of expressed mRNA in the absence of chemical substance,"yeast gene YKR018C, cultured two hours with substance",3.0
same,level of expressed mRNA in the presence of chemical substance / level in the absence of chemical substance,"yeast gene YKR040C, cultured two hours with the chemical substance",0.6
same,The level of expressed mRNA in the presence of chemical substance/The level of expressed mRNA in the absence of chemical substance,"yeast gene YKR046C, cultured two hours with substance",2.8
same,The level of expressed mRNA in the presence of chemical substance/The level of expressed mRNA in the absence of chemical substance,"yeast gene YKR075C, cultured two hours with substance",3.8
same,The level of expressed mRNA in the presence of chemical substance/The level of expressed mRNA in the absence of chemical substance,"yeast gene YLL041C, mitochondria-located protein gene, cultured two hours with substance",1.0
same,The level of expressed mRNA in the presence of chemical substance/The level of expressed mRNA in the absence of chemical substance,"yeast gene YLR041W, cultured two hours with the chemical substance",0.3
same,The level of expressed mRNA in the presence of chemical substance/The level of expressed mRNA in the absence of chemical substance,"yeast gene YLR217W, cultured two hours with substance",3.8
same,level of expressed mRNA in the presence of chemical substance / level in the absence of chemical substance,"yeast gene YLR226W, cultured two hours with the chemical substance",0.7
same,level of expressed mRNA in the presence of chemical substance / level in the absence of chemical substance,"yeast gene YLR338W, cultured two hours with the chemical substance",1.2
same,The level of expressed mRNA in the presence of chemical substance/The level of expressed mRNA in the absence of chemical substance,yeast gene YLR340W,0.1
same,The level of expressed mRNA in the presence of chemical substance/The level of expressed mRNA in the absence of chemical substance,"yeast gene YLR350W, cultured two hours with substance",4.5
same,The level of expressed mRNA in the presence of chemical substance/The level of expressed mRNA in the absence of chemical substance,"yeast gene YLR387C, cultured two hours with substance",3.6
same,The level of expressed mRNA in the presence of chemical substance/The level of expressed mRNA in the absence of chemical substance,yeast gene YLR388W,0.1
same,level of expressed mRNA in the presence of chemical substance / level in the absence of chemical substance,"yeast gene YLR392C, cultured two hours with the chemical substance",1.4
same,level of expressed mRNA in the presence of chemical substance / level in the absence of chemical substance,"yeast gene YLR415C, cultured two hours with the chemical substance",1.0
same,level of expressed mRNA in the presence of chemical substance / level in the absence of chemical substance,"yeast gene YLR427W, cultured two hours with the chemical substance",2.5
same,level of expressed mRNA in the presence of chemical substance / level in the absence of chemical substance,"yeast gene YML013W, cultured two hours with the chemical substance",1.2
same,level of expressed mRNA in the presence of chemical substance / level in the absence of chemical substance,"yeast gene YML029W, cultured two hours with the chemical substance",2.0
same,level of expressed mRNA in the presence of chemical substance / level in the absence of chemical substance,"yeast gene YML041C, cultured two hours with the chemical substance",1.2
same,The level of expressed mRNA in the presence of chemical substance/The level of expressed mRNA in the absence of chemical substance,"yeast gene YML054C, cultured for two hours with substance",2.8
same,level of expressed mRNA in the presence of chemical substance / level in the absence of chemical substance,"yeast gene YML079W, cultured two hours with the chemical substance",1.6
same,The level of expressed mRNA in the presence of chemical substance/The level of expressed mRNA in the absence of chemical substance,"yeast gene YML100W, cultured for two hours with substance",3.8
same,level of expressed mRNA in the presence of chemical substance / level in the absence of chemical substance,"yeast gene YMR068W, cultured two hours with the chemical substance",1.4
same,level of expressed mRNA in the presence of chemical substance / level in the absence of chemical substance,"yeast gene YMR071C, cultured two hours with the chemical substance",1.3
same,The level of expressed mRNA in the presence of chemical substance/The level of expressed mRNA in the absence of chemical substance,"yeast gene YMR095C, cultured two hours with substance",3.4
same,level of expressed mRNA in the presence of chemical substance / level in the absence of chemical substance,"yeast gene YMR160W, cultured two hours with the chemical substance",1.6
same,The level of expressed mRNA in the presence of chemical substance/The level of expressed mRNA in the absence of chemical substance,"yeast gene YMR191W, cultured two hours with substance",3.4
same,The level of expressed mRNA in the presence of chemical substance/The level of expressed mRNA in the absence of chemical substance,"yeast gene YMR203W, mitochondria-located protein gene, cultured two hours with substance",1.1
same,The level of expressed mRNA in the presence of chemical substance/The level of expressed mRNA in the absence of chemical substance,"yeast gene YMR210W, cultured two hours with the chemical substance, DNA chip fluorescence ratio",1.0
same,level of expressed mRNA in the presence of chemical substance / level in the absence of chemical substance,"yeast gene YNL026W, cultured two hours with the chemical substance",1.7
same,level of expressed mRNA in the presence of chemical substance / level in the absence of chemical substance,"yeast gene YNL058C, cultured two hours with the chemical substance",0.6
same,level of expressed mRNA in the presence of chemical substance / level in the absence of chemical substance,"yeast gene YNL063W, cultured two hours with the chemical substance",1.5
same,The level of expressed mRNA in the presence of chemical substance/The level of expressed mRNA in the absence of chemical substance,yeast gene YNL069C,0.1
same,The level of expressed mRNA in the presence of chemical substance/The level of expressed mRNA in the absence of chemical substance,"yeast gene YNL115C, cultured two hours with substance",2.5
same,The level of expressed mRNA in the presence of chemical substance/The level of expressed mRNA in the absence of chemical substance,"yeast gene YNL155W, cultured two hours with substance",4.4
same,level of expressed mRNA in the presence of chemical substance / level in the absence of chemical substance,"yeast gene YNL176C, cultured two hours with the chemical substance",0.6
same,level of expressed mRNA in the presence of chemical substance / level in the absence of chemical substance,"yeast gene YNL194C, cultured two hours with the chemical substance",1.5
same,level of expressed mRNA in the presence of chemical substance / level in the absence of chemical substance,"yeast gene YNL200C, cultured two hours with the chemical substance",1.1
same,The level of expressed mRNA in the presence of chemical substance/The level of expressed mRNA in the absence of chemical substance,"yeast gene YNL208W, cultured two hours with substance",1.7
same,The level of expressed mRNA in the presence of chemical substance/The level of expressed mRNA in the absence of chemical substance,"yeast gene YNL234W, cultured two hours with substance",2.5
same,The level of expressed mRNA in the presence of chemical substance/The level of expressed mRNA in the absence of chemical substance,"yeast gene YNL241C, cultured for two hours with substance",4.9
same,level of expressed mRNA in the presence of chemical substance / level in the absence of chemical substance,"yeast gene YNL253W, cultured two hours with the chemical substance",1.1
same,level of expressed mRNA in the presence of chemical substance / level in the absence of chemical substance,"yeast gene YNL276C, cultured two hours with the chemical substance",1.5
same,level of expressed mRNA in the presence of chemical substance / level in the absence of chemical substance,"yeast gene YNR051C, cultured two hours with the chemical substance",2.1
same,level of expressed mRNA in the presence of chemical substance / level in the absence of chemical substance,"yeast gene YOL026C, cultured two hours with the chemical substance",1.2
same,The level of expressed mRNA in the presence of chemical substance/The level of expressed mRNA in the absence of chemical substance,"yeast gene YOL030W, cultured two hours with the chemical substance",1.7
same,The level of expressed mRNA in the presence of chemical substance/The level of expressed mRNA in the absence of chemical substance,"yeast gene YOL036W, cultured two hours with substance",2.5
same,The level of expressed mRNA in the presence of chemical substance/The level of expressed mRNA in the absence of chemical substance,yeast gene YOL039W,0.1
same,The level of expressed mRNA in the presence of chemical substance/The level of expressed mRNA in the absence of chemical substance,"yeast gene YOL084W, cultured two hours with substance",6.4
same,The level of expressed mRNA in the presence of chemical substance/The level of expressed mRNA in the absence of chemical substance,yeast gene YOL120C,0.1
same,level of expressed mRNA in the presence of chemical substance / level in the absence of chemical substance,"yeast gene YOR022C, cultured two hours with the chemical substance",1.7
same,level of expressed mRNA in the presence of chemical substance / level in the absence of chemical substance,"yeast gene YOR087W, cultured two hours with the chemical substance",1.2
same,level of expressed mRNA in the presence of chemical substance / level in the absence of chemical substance,"yeast gene YOR138C, cultured two hours with the chemical substance",1.8
same,The level of expressed mRNA in the presence of chemical substance/The level of expressed mRNA in the absence of chemical substance,"yeast gene YOR152C, cultured two hours with substance",7.4
same,The level of expressed mRNA in the presence of chemical substance/The level of expressed mRNA in the absence of chemical substance,yeast gene YOR153W,11.8
same,The level of expressed mRNA in the presence of chemical substance/The level of expressed mRNA in the absence of chemical substance,"yeast gene YOR173W, cultured two hours with substance",3.8
same,The level of expressed mRNA in the presence of chemical substance/The level of expressed mRNA in the absence of chemical substance,"yeast gene YOR187W, mitochondria-located protein gene, cultured two hours with substance",0.7
same,level of expressed mRNA in the presence of chemical substance / level in the absence of chemical substance,"yeast gene YOR253W, cultured two hours with the chemical substance",0.5
same,level of expressed mRNA in the presence of chemical substance / level in the absence of chemical substance,"yeast gene YOR267C, cultured two hours with the chemical substance",1.4
same,level of expressed mRNA in the presence of chemical substance / level in the absence of chemical substance,"yeast gene YOR325W, cultured two hours with the chemical substance",0.6
same,The level of expressed mRNA in the presence of chemical substance/The level of expressed mRNA in the absence of chemical substance,"yeast gene YOR382W, cultured two hours with substance",1.7
same,The level of expressed mRNA in the presence of chemical substance/The level of expressed mRNA in the absence of chemical substance,"yeast gene YOR385W, cultured two hours with the substance",2.8
same,level of expressed mRNA in the presence of chemical substance / level in the absence of chemical substance,"yeast gene YPL005W, cultured two hours with the chemical substance",1.2
same,The level of expressed mRNA in the presence of chemical substance/The level of expressed mRNA in the absence of chemical substance,"yeast gene YPL087W, cultured two hours with substance",4.4
same,level of expressed mRNA in the presence of chemical substance / level in the absence of chemical substance,"yeast gene YPL150W, cultured two hours with the chemical substance",2.1
same,level of expressed mRNA in the presence of chemical substance / level in the absence of chemical substance,"yeast gene YPL152W, cultured two hours with the chemical substance",1.4
same,level of expressed mRNA in the presence of chemical substance / level in the absence of chemical substance,"yeast gene YPL168W, cultured two hours with the chemical substance",1.0
same,level of expressed mRNA in the presence of chemical substance / level in the absence of chemical substance,"yeast gene YPL180W, cultured two hours with the chemical substance",1.5
same,level of expressed mRNA in the presence of chemical substance / level in the absence of chemical substance,"yeast gene YPL188W, cultured two hours with the chemical substance",0.9
same,level of expressed mRNA in the presence of chemical substance / level in the absence of chemical substance,"yeast gene YPL221W, cultured two hours with the chemical substance",1.0
same,The level of expressed mRNA in the presence of chemical substance/The level of expressed mRNA in the absence of chemical substance,"yeast gene YPL222W, cultured two hours with substance",3.0
same,level of expressed mRNA in the presence of chemical substance / level in the absence of chemical substance,"yeast gene YPL225W, cultured two hours with the chemical substance",0.8
same,The level of expressed mRNA in the presence of chemical substance/The level of expressed mRNA in the absence of chemical substance,"yeast gene YPR037C, mitochondria-located protein gene, cultured two hours with substance",1.0
same,level of expressed mRNA in the presence of chemical substance / level in the absence of chemical substance,"yeast gene YPR049C, cultured two hours with the chemical substance",1.6
same,The level of expressed mRNA in the presence of chemical substance/The level of expressed mRNA in the absence of chemical substance,"yeast gene YPR134W, mitochondria-located protein gene, cultured two hours with substance",1.1
same,level of expressed mRNA in the presence of chemical substance / level in the absence of chemical substance,"yeast gene YPR146C, cultured two hours with the chemical substance",1.3
same,level of expressed mRNA in the presence of chemical substance / level in the absence of chemical substance,"yeast gene YPR148C, cultured two hours with the chemical substance",1.2
same,level of expressed mRNA in the presence of chemical substance / level in the absence of chemical substance,"yeast gene YPR172W, cultured two hours with the chemical substance",1.3

# Source: patent publication US20100041089A1, “IMPROVED METHOD FOR DETECTING CHEMICAL […]” (priority 2006, published 2010)
